Data as given in patent US20060160789A1 (priority 2005, published 2006).
Several values for one entry are separate records, joined by “and”; a condition that tells them apart may be missing. Equal entries are not always repeated.

Tested on: patients hospitalized for a laparotomy in the context of digestive surgery
Details: human, in vivo

CN1CCOC(c2ccccc2)c2ccccc2C1 (centres unmarked) [nefopam]
Morphine PCA over 24 h: 0.255 mg/kg and 0.454 mg/kg | Morphine titration (mg): 7.5 mg and 9 mg | Morphine titration (mg/kg): 0.082 mg/kg and 0.130 mg/kg | Total morphine over 24 h: 0.365 mg/kg and 0.649 mg/kg | quantity of morphine titration administered for group 4 versus quantity expected if nefopam only had analgesic effects: smaller than that which would have had to be administered to the group if nefopam only had analgesic effects
